Data as given in ChEMBL document CHEMBL1629701, “Phase 2a randomized controlled trial of short-term activity, safety, and pharmacokinetics of a novel nonnucleoside reverse transcriptase inhibitor, RDEA806, in HIV-1-positive, antiretroviral-naive subjects” (Antimicrob Agents Chemother, 2010).
Active and inactive are the calls of the source. The calls are words filed in the database; no cut-off is given here.

Experiments:
[1] = Plasma protein binding in dog; assay type: ADME, cell-free, Canis lupus familiaris; conditions: read-out: PPB
[2] = Plasma protein binding in rhesus monkey; assay type: ADME, cell-free, Macaca mulatta; conditions: read-out: PPB
[3] = Drug excretion in human urine; assay type: ADME; conditions: read-out: Activity
[4] = Drug excretion in rat urine; assay type: ADME, tissue-based; conditions: read-out: Activity
[5] = Drug excretion in dog urine; assay type: ADME, Canis lupus familiaris; conditions: read-out: Activity
[6] = Drug excretion in rhesus monkey urine; assay type: ADME, Macaca mulatta; conditions: read-out: Activity
[7] = Renal clearance in human; assay type: ADME, organism-based, Kidney; conditions: in vivo, read-out: CL_renal
[8] = Renal clearance in rat; assay type: ADME, organism-based, Kidney; conditions: in vivo, read-out: CL_renal
[9] = Renal clearance in dog; assay type: ADME, organism-based, Canis lupus familiaris, Kidney; conditions: in vivo, read-out: CL_renal
[10] = Renal clearance in rhesus monkey; assay type: ADME, organism-based, Macaca mulatta, Kidney; conditions: in vivo, read-out: CL_renal
[11] = Terminal half life […] at 300 to 500 mg; assay type: ADME
Homo sapiens [12] = species on record: Homo sapiens; test: Toxicity in healthy human assessed as occurrence of adverse events; assay type: organism-based; conditions: in vivo
Homo sapiens [13] = species on record: Homo sapiens; test: Cardiotoxicity in healthy human assessed as changes in electrocardiographic QTc interval; assay type: toxicity, organism-based; conditions: in vivo
Homo sapiens [14] = species on record: Homo sapiens; test: Reduction in uric acid level in human plasma; assay type: functional, organism-based
[15] = tested on: Human immunodeficiency virus 1; test: Antiviral activity against HIV1 infected in fasted human assessed as decrease in log10 HIV RNA copies/ml at 400 mg, po BID for 7 days as four modified-release capsules followed by a single dose on day 8 measured on day 9 relative to pooled placebo control; assay type: functional
[16] = tested on: Human immunodeficiency virus 1; test: Antiviral activity against HIV1 infected in fasted human assessed as decrease in log10 HIV RNA copies/ml at 600 mg, po […] followed by a single dose on day 8 measured on day 9 relative to pooled placebo control; assay type: functional
[17] = tested on: Human immunodeficiency virus 1; test: Antiviral activity against HIV1 infected in fasted human assessed as decrease in log10 HIV RNA copies/ml at 800 mg, po […] followed by a single dose on day 8 measured on day 9 relative to pooled placebo control; assay type: functional
[18] = tested on: Human immunodeficiency virus 1; test: Antiviral activity against HIV1 infected in fasted human assessed as decrease in log10 HIV RNA copies/ml at 1000 mg, po […] followed by a single dose on day 8 measured on day 9 relative to pooled placebo control; assay type: functional
[19] = tested on: Human immunodeficiency virus 1; test: Antiviral activity against HIV1 infected in fasted human assessed as decrease in plasma viral log10 RNA copies/ml at 400 mg, po BID for 7 days as four modified-release capsules followed by a single dose on day 8 measured on day 9 relative to pooled placebo control; assay type: functional
[20] = tested on: Human immunodeficiency virus 1; test: Antiviral activity against HIV1 infected in fasted human assessed as decrease in plasma viral log10 RNA copies/ml at 600 mg, po […] followed by a single dose on day 8 measured on day 9 relative to pooled placebo control; assay type: functional
[21] = tested on: Human immunodeficiency virus 1; test: Antiviral activity against HIV1 infected in fasted human assessed as decrease in plasma viral log10 RNA copies/ml at 800 mg, po […] followed by a single dose on day 8 measured on day 9 relative to pooled placebo control; assay type: functional
[22] = tested on: Human immunodeficiency virus 1; test: Antiviral activity against HIV1 infected in fasted human assessed as decrease in plasma viral log10 RNA copies/ml at 1000 mg, po […] followed by a single dose on day 8 measured on day 9 relative to pooled placebo control; assay type: functional
[23] = tested on: Human immunodeficiency virus 1; test: Antiviral activity against HIV1 infected in fasted human assessed as viral load decay rate as viral log10 RNA copies/ml/day at 400 mg, po BID for 7 days as four modified-release capsules followed by a single dose on day 8 measured on day 9; assay type: functional
[24] = tested on: Human immunodeficiency virus 1; test: Antiviral activity against HIV1 infected in fasted human assessed as viral load decay rate as viral log10 RNA copies/ml/day at 600 mg, po BID for 7 days as four modified-release capsules followed by a single dose on day 8 measured per day for 9 days; assay type: functional
[25] = tested on: Human immunodeficiency virus 1; test: Antiviral activity against HIV1 infected in fed human assessed as viral load decay rate as viral log10 RNA copies/ml/day at 800 mg, po administered every day as four enteric-coated tablets followed by a single dose on day 8 measured on day 9; assay type: functional
[26] = tested on: Human immunodeficiency virus 1; test: Antiviral activity against HIV1 infected in fasted human assessed as as viral load decay rate as viral log10 RNA copies/ml/day at 1000 mg, po administered every day as five enteric-coated tablets followed by a single dose on day 8 measured on day 9; assay type: functional
[27] = tested on: Human immunodeficiency virus 1; test: Antiviral activity against HIV1 infected in human assessed as log reduction in HIV-1 RNA level at 800 mg, po administered every day; assay type: functional
[28] = tested on: Human immunodeficiency virus 1; test: Antiviral activity against HIV1 infected in human assessed as change in CD4 expressing T-cell count from baseline at 400 mg, po BID for 7 days as four modified-release capsules followed by a single dose on day 8 measured on day 9 relative to pooled placebo control; assay type: functional
[29] = tested on: Human immunodeficiency virus 1; test: Antiviral activity against HIV1 infected in human assessed as change in CD8 expressing T-cell count from baseline at 400 mg, po BID for 7 days as four modified-release capsules followed by a single dose on day 8 measured on day 9 relative to pooled placebo control; assay type: functional
[30] = tested on: Human immunodeficiency virus 1; test: Antiviral activity against HIV1 infected in human assessed as change in CD4 expressing T-cell count from baseline at 600 mg, po BID for 7 days as four modified-release capsules followed by a single dose on day 8 measured on day 9 relative to pooled placebo control; assay type: functional
[31] = tested on: Human immunodeficiency virus 1; test: Antiviral activity against HIV1 infected in human assessed as change in CD8 expressing T-cell count from baseline at 600 mg, po BID for 7 days as four modified-release capsules followed by a single dose on day 8 measured on day 9 relative to pooled placebo control; assay type: functional
[32] = tested on: Human immunodeficiency virus 1; test: Antiviral activity against HIV1 infected in human assessed as change in CD4 expressing T-cell count from baseline at 800 mg, po administered every day as four enteric-coated tablets followed by a single dose on day 8 measured on day 9 relative to pooled placebo control; assay type: functional
[33] = tested on: Human immunodeficiency virus 1; test: Antiviral activity against HIV1 infected in human assessed as change in CD8 expressing T-cell count from baseline at 800 mg, po administered every day as four enteric-coated tablets followed by a single dose on day 8 measured on day 9 relative to pooled placebo control; assay type: functional

O=C(CSc1nnc(Br)n1-c1ccc(C2CC2)c2ccccc12)Nc1ccc(C(=O)O)cc1Cl
fraction unbound [1]: < 0.01
fraction unbound [2]: < 0.01
dose excreted [3]: < 0.06%
dose excreted [4]: < 0.06%
dose excreted [5]: < 0.06%
dose excreted [6]: < 0.06%
CL renal [7]: ≤ 1 mL/min
CL renal [8]: ≤ 1 mL/min
CL renal [9]: ≤ 1 mL/min
CL renal [10]: ≤ 1 mL/min
half-life [11]: 10.4 h
Activity (Homo sapiens [12]): Non-toxic
Activity (Homo sapiens [13]): Non-toxic
Activity (Homo sapiens [14]): Active
Activity [15]: -1.948 mL⁻¹
Activity [16]: -1.394 mL⁻¹
Activity [17]: -1.619 mL⁻¹
Activity [18]: -1.696 mL⁻¹
Activity [19]: -2.0608 mL⁻¹
Activity [20]: -1.5241 mL⁻¹
Activity [21]: -1.7426 mL⁻¹
Activity [22]: -1.8189 mL⁻¹
Activity [23]: -0.25 mL⁻¹
Activity [24]: -0.18 mL⁻¹
Activity [25]: -0.2 mL⁻¹
Activity [26]: -0.22 mL⁻¹
Activity [27]: 0.5 mL⁻¹
Activity [28]: 19.22 /mm3
Activity [29]: -39.17 /mm3
Activity [30]: -14.44 /mm3
Activity [31]: 64.54 /mm3
Activity [32]: 100.74 /mm3
Activity [33]: 79.41 /mm3
